Measured values as given in patent publication US9249129B2, “Morpholino substituted urea derivatives as mTOR inhibitors” (CELLZOME LIMITED, priority 2010, dated 2016).

What was measured:
Experiment in all cases: kinobeads assay with mass spectrometry detection of kinases (kinase selectivity profile)
Assay type in all cases: binding
[1] = biological target: T1, kinases (kinome) (Homo sapiens, UniProt O00329); settings: PIK3Cd (Lipid Kinase), IPI00384817
T1 construct: determined in kinobeads assays with mass spectrometry detection of kinases as described previously; endogenous in cells; host or cells: cell lysate
T1 sequence (O00329 1-1044): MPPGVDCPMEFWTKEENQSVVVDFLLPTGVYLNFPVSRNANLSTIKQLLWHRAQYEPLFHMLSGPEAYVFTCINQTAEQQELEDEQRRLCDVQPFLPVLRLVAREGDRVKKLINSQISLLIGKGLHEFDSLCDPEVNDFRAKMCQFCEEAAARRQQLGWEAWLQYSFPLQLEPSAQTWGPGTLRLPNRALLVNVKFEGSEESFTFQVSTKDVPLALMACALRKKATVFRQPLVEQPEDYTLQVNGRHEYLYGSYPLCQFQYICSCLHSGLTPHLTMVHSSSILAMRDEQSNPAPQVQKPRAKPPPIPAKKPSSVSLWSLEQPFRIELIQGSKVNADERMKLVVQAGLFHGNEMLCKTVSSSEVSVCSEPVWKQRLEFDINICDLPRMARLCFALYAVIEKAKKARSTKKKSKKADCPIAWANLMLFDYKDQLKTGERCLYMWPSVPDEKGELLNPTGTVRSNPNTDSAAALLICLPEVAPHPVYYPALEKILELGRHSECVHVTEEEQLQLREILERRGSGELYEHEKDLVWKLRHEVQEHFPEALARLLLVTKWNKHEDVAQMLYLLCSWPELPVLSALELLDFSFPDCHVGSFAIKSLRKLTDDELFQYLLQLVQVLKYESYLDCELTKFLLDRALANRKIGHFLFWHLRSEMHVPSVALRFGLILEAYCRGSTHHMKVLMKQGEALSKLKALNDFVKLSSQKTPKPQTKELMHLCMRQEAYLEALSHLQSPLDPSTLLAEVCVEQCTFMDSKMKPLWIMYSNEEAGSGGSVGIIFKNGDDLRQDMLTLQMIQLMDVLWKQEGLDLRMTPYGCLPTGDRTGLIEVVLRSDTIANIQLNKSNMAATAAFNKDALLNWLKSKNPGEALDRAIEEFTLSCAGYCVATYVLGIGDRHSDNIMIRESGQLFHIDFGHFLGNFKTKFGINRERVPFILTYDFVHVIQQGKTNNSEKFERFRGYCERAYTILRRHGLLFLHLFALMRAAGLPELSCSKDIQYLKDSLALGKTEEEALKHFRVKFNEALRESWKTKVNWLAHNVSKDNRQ
Source text: (§1) The protein kinase complement of the human genome (the kinome) was described previously (Manning et al., 2002. Science 298(5600):1912-1934). Sequence accession numbers are defined by the International Protein Index (IPI) (Kersey et al., 2004. Proteomics 4(7):1985-1988).

[2] = biological target: T2, kinases (kinome) (Homo sapiens, UniProt P42356); settings: PIK4Ca (Lipid Kinase), IPI00070943
T2 construct: determined in kinobeads assays with mass spectrometry detection of kinases as described previously; endogenous in cells; host or cells: cell lysate
T2 sequence (P42356 whole entry): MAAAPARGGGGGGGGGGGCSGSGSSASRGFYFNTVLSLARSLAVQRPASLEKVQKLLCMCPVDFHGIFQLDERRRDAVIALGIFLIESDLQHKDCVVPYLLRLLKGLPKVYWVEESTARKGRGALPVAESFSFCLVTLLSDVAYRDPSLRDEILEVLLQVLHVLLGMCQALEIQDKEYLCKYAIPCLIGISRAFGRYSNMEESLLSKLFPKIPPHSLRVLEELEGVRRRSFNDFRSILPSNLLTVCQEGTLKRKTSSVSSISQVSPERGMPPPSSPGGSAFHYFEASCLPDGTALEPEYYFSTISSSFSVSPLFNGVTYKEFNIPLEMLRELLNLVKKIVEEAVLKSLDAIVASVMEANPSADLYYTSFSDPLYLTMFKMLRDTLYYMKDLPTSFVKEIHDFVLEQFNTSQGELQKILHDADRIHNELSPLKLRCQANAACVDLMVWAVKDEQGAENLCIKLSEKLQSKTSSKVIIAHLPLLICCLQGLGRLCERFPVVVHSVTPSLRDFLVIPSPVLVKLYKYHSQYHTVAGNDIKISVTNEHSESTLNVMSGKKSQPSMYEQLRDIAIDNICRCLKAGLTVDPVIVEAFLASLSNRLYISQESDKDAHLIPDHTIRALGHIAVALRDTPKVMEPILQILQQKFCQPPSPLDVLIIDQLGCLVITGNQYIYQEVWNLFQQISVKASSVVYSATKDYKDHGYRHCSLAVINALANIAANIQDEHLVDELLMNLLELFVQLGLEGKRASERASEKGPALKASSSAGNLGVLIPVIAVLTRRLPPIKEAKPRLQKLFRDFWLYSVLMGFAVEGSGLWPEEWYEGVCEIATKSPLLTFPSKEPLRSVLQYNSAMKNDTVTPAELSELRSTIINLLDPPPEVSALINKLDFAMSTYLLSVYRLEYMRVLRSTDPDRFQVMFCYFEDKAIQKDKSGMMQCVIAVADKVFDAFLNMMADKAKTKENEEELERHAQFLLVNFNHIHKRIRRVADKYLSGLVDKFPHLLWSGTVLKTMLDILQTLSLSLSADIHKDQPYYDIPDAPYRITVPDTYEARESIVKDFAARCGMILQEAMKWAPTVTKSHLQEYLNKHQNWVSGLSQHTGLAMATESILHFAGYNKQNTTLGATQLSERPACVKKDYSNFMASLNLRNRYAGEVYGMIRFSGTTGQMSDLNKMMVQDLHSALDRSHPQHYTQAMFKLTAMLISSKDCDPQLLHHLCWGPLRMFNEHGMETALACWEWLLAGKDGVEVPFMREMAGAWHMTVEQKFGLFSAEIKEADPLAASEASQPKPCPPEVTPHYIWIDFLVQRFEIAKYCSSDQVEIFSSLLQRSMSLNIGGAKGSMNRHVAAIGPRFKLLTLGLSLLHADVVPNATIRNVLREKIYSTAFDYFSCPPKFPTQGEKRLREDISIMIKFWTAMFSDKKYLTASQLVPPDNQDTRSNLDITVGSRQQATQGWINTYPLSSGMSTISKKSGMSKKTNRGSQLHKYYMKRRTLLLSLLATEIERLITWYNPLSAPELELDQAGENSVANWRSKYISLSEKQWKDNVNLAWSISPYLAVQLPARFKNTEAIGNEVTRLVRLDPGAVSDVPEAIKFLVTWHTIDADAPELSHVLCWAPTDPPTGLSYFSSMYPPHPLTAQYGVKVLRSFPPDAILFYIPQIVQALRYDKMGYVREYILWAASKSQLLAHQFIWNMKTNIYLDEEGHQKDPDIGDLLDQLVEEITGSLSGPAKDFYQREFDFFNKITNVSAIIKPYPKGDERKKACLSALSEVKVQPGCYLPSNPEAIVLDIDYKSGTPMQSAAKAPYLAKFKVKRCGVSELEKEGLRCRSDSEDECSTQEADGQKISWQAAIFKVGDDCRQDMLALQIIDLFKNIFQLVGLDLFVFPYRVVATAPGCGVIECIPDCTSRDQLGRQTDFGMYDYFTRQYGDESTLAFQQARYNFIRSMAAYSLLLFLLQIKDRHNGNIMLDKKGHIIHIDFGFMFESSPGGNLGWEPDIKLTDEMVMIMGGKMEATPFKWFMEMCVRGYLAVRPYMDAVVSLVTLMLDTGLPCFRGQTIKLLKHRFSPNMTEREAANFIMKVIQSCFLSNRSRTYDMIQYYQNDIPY
Source text: as §1

[3] = biological target: T3, kinases (kinome) (Homo sapiens, UniProt P06241); settings: FYN (TK), IPI00219012
T3 construct: determined in kinobeads assays with mass spectrometry detection of kinases as described previously; endogenous in cells; host or cells: cell lysate
T3 sequence (P06241 whole entry): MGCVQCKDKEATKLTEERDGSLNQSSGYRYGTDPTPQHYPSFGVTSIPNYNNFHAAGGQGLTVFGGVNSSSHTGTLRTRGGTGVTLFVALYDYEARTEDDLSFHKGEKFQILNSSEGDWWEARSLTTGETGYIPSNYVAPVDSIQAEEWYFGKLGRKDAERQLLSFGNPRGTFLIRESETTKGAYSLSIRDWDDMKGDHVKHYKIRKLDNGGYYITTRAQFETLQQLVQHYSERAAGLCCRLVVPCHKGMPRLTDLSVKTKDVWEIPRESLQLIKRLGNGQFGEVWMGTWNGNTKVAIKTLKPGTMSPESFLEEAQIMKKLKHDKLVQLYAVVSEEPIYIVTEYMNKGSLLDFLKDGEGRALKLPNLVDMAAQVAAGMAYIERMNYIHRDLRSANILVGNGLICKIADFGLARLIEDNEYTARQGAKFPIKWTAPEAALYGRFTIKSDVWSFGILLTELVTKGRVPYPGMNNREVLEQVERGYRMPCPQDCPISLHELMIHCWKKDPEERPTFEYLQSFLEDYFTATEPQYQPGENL
Source text: as §1

[4] = biological target: T4, kinases (kinome) (Homo sapiens, UniProt P42680); settings: TEC (TK), IPI00000878
T4 construct: determined in kinobeads assays with mass spectrometry detection of kinases as described previously; endogenous in cells; host or cells: cell lysate
T4 sequence (P42680 1-631): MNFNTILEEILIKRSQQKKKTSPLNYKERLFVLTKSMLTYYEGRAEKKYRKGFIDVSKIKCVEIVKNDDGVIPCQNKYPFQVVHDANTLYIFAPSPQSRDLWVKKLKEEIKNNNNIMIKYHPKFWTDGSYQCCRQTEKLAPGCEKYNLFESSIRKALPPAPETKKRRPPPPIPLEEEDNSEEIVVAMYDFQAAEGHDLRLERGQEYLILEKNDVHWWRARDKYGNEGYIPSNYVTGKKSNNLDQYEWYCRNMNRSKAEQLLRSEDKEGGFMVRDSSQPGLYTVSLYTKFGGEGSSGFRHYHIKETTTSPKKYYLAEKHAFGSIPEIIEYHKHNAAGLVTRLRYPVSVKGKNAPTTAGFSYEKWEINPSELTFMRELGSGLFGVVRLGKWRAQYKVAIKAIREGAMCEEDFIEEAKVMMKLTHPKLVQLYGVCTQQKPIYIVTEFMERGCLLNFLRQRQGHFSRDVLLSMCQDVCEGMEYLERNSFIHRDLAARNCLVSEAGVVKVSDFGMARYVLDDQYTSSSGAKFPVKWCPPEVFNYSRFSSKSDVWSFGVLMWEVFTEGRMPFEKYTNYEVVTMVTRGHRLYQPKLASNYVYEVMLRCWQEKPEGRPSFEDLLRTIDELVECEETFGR
Source text: as §1

[5] = biological target: T5, kinases (kinome) (Homo sapiens, UniProt Q16512); settings: PKN1 (AGC), IPI00412672
T5 construct: determined in kinobeads assays with mass spectrometry detection of kinases as described previously; endogenous in cells; host or cells: cell lysate
T5 sequence (Q16512 whole entry): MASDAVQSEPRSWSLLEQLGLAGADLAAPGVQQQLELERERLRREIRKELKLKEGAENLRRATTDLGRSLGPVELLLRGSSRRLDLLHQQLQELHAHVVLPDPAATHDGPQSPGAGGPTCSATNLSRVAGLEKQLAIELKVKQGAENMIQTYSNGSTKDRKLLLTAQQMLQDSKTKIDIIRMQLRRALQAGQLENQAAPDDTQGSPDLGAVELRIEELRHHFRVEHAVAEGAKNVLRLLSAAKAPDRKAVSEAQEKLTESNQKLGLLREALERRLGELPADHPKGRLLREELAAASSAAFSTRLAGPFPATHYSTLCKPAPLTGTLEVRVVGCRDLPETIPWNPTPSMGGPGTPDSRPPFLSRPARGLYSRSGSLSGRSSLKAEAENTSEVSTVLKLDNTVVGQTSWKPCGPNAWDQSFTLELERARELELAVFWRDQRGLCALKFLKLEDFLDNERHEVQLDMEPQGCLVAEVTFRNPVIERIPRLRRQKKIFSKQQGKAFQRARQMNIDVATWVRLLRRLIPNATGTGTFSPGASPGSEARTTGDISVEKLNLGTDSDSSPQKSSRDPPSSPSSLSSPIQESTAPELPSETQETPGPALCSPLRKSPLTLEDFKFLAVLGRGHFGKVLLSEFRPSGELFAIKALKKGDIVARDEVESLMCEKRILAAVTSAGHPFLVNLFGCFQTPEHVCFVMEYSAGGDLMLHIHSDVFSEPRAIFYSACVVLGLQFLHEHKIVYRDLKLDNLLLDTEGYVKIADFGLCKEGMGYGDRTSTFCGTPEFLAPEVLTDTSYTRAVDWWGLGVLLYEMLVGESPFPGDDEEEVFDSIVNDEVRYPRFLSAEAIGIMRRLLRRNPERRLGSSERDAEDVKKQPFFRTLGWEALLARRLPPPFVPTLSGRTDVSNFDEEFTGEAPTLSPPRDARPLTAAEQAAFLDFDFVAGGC
Source text: as §1

[6] = biological target: T6, kinases (kinome) (Homo sapiens, UniProt P05771); settings: PKCb (AGC), IPI00219628
T6 construct: determined in kinobeads assays with mass spectrometry detection of kinases as described previously; endogenous in cells; host or cells: cell lysate
Source text: as §1

[7] = biological target: T7, kinases (kinome) (Homo sapiens, UniProt P10398); settings: ARAF (TKL), IPI00020578
T7 construct: determined in kinobeads assays with mass spectrometry detection of kinases as described previously; endogenous in cells; host or cells: cell lysate
T7 sequence (P10398 1-606): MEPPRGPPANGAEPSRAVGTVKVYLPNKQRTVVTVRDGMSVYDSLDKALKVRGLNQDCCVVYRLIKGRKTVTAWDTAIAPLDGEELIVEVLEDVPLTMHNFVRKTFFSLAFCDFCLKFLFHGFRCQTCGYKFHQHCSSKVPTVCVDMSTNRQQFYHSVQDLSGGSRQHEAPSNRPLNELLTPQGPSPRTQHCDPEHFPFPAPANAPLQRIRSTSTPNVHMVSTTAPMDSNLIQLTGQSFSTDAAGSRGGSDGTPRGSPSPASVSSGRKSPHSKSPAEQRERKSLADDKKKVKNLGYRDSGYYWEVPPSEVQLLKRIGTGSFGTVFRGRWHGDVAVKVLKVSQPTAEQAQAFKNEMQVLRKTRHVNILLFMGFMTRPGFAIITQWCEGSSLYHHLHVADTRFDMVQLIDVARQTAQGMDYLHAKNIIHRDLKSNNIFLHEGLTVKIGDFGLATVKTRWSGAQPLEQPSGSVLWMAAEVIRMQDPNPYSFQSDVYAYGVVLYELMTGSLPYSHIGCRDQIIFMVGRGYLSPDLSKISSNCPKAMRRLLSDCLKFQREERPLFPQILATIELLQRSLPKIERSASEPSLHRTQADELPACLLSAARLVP
Source text: as §1

[8] = biological target: T8, kinases (kinome) (Homo sapiens, UniProt Q15569); settings: TESK1 (TKL), IPI00018182
T8 construct: determined in kinobeads assays with mass spectrometry detection of kinases as described previously; endogenous in cells; host or cells: cell lysate
T8 sequence (Q15569 whole entry): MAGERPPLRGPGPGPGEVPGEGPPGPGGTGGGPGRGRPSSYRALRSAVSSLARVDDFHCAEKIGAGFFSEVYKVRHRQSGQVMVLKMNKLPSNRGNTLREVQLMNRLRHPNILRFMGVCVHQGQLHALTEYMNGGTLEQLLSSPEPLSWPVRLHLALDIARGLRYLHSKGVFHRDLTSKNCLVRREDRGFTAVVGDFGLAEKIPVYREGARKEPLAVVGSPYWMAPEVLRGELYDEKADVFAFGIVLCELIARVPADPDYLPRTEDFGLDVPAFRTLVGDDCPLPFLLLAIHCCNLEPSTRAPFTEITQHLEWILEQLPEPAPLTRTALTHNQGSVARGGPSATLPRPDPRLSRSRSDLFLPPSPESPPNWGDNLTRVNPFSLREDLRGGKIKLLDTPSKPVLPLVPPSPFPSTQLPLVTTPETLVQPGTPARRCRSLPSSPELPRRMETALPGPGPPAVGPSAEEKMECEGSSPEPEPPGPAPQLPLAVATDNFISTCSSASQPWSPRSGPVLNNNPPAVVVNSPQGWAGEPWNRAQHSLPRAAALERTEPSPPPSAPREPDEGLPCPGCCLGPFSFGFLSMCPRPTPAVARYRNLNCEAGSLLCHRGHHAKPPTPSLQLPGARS
Source text: as §1

[9] = biological target: T9, kinases (kinome) (Homo sapiens, UniProt P45984); settings: JNK2 (CMGC), IPI00303550
T9 construct: determined in kinobeads assays with mass spectrometry detection of kinases as described previously; endogenous in cells; host or cells: cell lysate
T9 sequence (P45984 whole entry): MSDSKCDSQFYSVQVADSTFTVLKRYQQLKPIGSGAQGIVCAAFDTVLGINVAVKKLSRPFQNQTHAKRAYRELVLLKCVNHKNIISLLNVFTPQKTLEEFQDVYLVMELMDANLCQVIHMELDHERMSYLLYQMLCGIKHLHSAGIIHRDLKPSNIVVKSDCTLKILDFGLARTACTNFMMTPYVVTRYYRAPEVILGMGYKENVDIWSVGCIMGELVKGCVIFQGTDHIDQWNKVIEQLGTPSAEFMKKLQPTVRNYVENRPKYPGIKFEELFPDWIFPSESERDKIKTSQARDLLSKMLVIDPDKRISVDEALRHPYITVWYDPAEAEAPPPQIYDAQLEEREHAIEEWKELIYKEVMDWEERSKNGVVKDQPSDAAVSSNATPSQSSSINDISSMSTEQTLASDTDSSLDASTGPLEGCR
Source text: as §1

Measured: IC50

C[C@H]1COCCN1c1nc(-c2ccc(NC(=O)NC3CC3)cc2)cc(-c2cccnc2S(C)(=O)=O)n1 [Example 46, (S)-1-cyclopropyl-3-(4-(2-(3-methylmorpholino)-6-(2-(methylsulfonyl)pyridin-3-yl)pyrimidin-4-yl)phenyl)urea]
> 10 µM: all assays above

C[C@H]1COCCN1c1nc(-c2ccc(NC(=O)NC3CC3)cc2)cc(-c2ccccc2S(C)(=O)=O)n1 [Example 4, (S)-1-cyclopropyl-3-(4-(2-(3-methylmorpholino)-6-(2-(methylsulfonyl)phenyl)pyrimidin-4-yl)phenyl)urea]
> 10 µM: all assays above

C[C@H]1COCCN1c1nc(-c2ccc(NC(=O)N[C@H]3CCC[C@@H]3O)cc2)cc(-c2cc(F)ccc2S(C)(=O)=O)n1 [Example 76, 1-(4-(6-(5-fluoro-2-(methylsulfonyl)phenyl)-2-((S)-3-methylmorpholino)pyrimidin-4-yl)phenyl)-3-((1S,2S)-2-hydroxycyclopentyl)urea]
not listed: [8]
> 10 µM: all other assays above

CCNC(=O)Nc1ccc(-c2cc(-c3ccccc3C#N)nc(N3CCOC[C@@H]3C)n2)cc1 [Example 8, (S)-1-(4-(6-(2-cyanophenyl)-2-(3-methylmorpholino)pyrimidin-4-yl)phenyl)-3-ethylurea]
> 10 µM: all assays above

C[C@H]1COCCN1c1cc(-c2ccccc2S(C)(=O)=O)nc(-c2ccc(NC(=O)NC3CC3)cc2)n1 [Example 6, (S)-1-cyclopropyl-3-(4-(4-(3-methylmorpholino)-6-(2-(methylsulfonyl)phenyl)pyrimidin-2-yl)phenyl)urea]
> 10 µM: all assays above

C[C@H]1COCCN1c1cc(-c2ccccn2)nc(-c2ccc(NC(=O)NCCO)cc2)n1 [Example 43, (S)-1-(2-hydroxyethyl)-3-(4-(4-(3-methylmorpholino)-6-(pyridin-2-yl)pyrimidin-2-yl)phenyl)urea]
> 10 µM: all assays above

C[C@H]1COCCN1c1nc(-c2ccc(NC(=O)NC3CC3)cc2)cc(-c2cc(F)ccc2S(C)(=O)=O)n1 [Example 40, (S)-1-cyclopropyl-3-(4-(6-(5-fluoro-2-(methylsulfonyl)phenyl)-2-(3-methylmorpholino)pyrimidin-4-yl)phenyl)urea]
> 10 µM: all assays above
